Source: patent US12440544B2, “Cross-reactive epitope for multiple sclerosis” (The Board of Trustees of the Leland Stanford Junior …, priority 2019, dated 2025)

What was measured:
Format in all cases: cell-based, human
MS-1 TCR cell line = assay: T cell stimulation assay (CD69), MS1-TCR cell line co-cultured with peptide-loaded T2-DR15 antigen presenting cells; details: for self-peptide identified for TCR2/MS-1 TCR: predicted with positional mutation/refined substitution matrix data, used for MS-1 TCR stimulation
Source text: We generated MS1-TCR cell line, co-cultured with T2-DR15 antigen presenting cell line loaded with yeast library generated peptides and were examined for activation. CD69 was used as a marker for T cell activation. […] We used yeast library enrichment data to predict actual peptides/antigens (self or non-self) for MS-1 CD4 TCRs.
TCRα, β constructs were cloned into a lentiviral construct. For TCR expression, alpha and beta TCR lentiviral constructs were transfected into 293× cells separately. The virus was harvested after 72 hr of transfection and transduced into Jurkat αβ^−/− or SKW αβ^−/− cells. SKW or Jurkat cells were enriched for highest expression of TCRαβ by using a Miltenyi anti-APC selection (Miltenyi 130-090-855).
T cell stimulation assays were performed as previously described. All the T cell peptide stimulation experiments were done in 96 well round bottom plates with a 200 μl total volume. T2, K562 cells or BMDCs were pulsed with 10-100 ug of the peptides for 45 minutes, washed once and plated (10,000 cells/well). Cell lines expressing TCRs (100, 000 cells/well) were co-cultured with APCs for 18 hr. At the end of stimulation, cells were harvested, washed, and stained with TCRβ, human CD3, and CD69 and analyzed on LSR II (Becton Dickinson) for activation.

Adeno-TCR1 = assay: T cell stimulation of adeno-tetramer sorted CD4 TCR cell line, cross reactivity with MBP 85-99 peptide; details: adeno specific TCR cell line stimulated with Adeno peptide and MBP
Source text: (§1) To detect/determine adeno specific T cells directly from MS patients (n=9) and healthy (n=9), we generated pMHC tetramers, enriched, and enumerated CD4's that are specific to the adeno peptide. We were able to detect adeno specific CD4 T cells, which were higher in number among MS patients compared to HC. We also single cell sorted these adeno specific CD4 T cells, sequenced their TCRs, and generated TCR cell lines (adeno specific TCRs).
(§2) TCR cell lines from adeno-tetramer sorted CD4 TCRs were tested for cross reactivity with MBP 85-99 peptide. We also tested MS-1 TCR for cross reactivity with MBP. Adeno specific TCRs were stimulated with Adeno peptide and MBP. TCR2/ms-1 TCR and some of the adeno-TCRs (Adeno-TCR1 and 9) cross react with MBP peptide. Serum from MS (n=28) and HC (n=10) was tested for adeno virus titers in the serum. A subset of MS sera had higher adeno virus compared to HC sera. CD3+ T cells from 8 MS and 5 HCs were sorted, and TCR and RNA-seq performed using 10× platform. Additionally, for 4 out of 8 MS patients, T cells from cerebrospinal fluid were sequenced. […]
(§3) T cell stimulation assays were performed as previously described. […] At the end of stimulation, cells were harvested, washed, and stained with TCRβ, human CD3, and CD69 and analyzed on LSR II (Becton Dickinson) for activation.

Adeno-TCR9 = assay: as above; details: adeno specific TCR cell line stimulated with Adeno peptide and MBP
Source text: as §1, §2, §3

Sequence: ANYGKARSWYLK [SEQ ID NO:2]
- self-peptide identified for TCR2/MS-1 TCR (MS-1 TCR cell line): identified for TCR2/MS-1 TCR

Sequence: ATFTSYRSWYLA [Adeno]
- stimulation of MS-1 TCR cell line (CD69 as marker for T cell activation) (MS-1 TCR cell line; co-cultured with T2-DR15 antigen presenting cell line loaded with peptide): stimulated MS-1 TCR cell line

Sequence: DKGQQYRNWFLK [SEQ ID NO:4]
- self-peptide identified for TCR2/MS-1 TCR (MS-1 TCR cell line): identified for TCR2/MS-1 TCR

Sequence: ENPVVHFFKNIVTPR [MBP peptide]
- cross reactivity of TCR2/MS-1 TCR with MBP peptide (MS-1 TCR cell line; TCR cell line stimulated with Adeno peptide and MBP): cross react
- cross reactivity of Adeno-TCR1 with MBP peptide (Adeno-TCR1): cross react
- cross reactivity of Adeno-TCR9 with MBP peptide (Adeno-TCR9): cross react

Sequence: IDRHMYHSYLK [SEQ ID NO:3]
- self-peptide identified for TCR2/MS-1 TCR (MS-1 TCR cell line): identified for TCR2/MS-1 TCR
